Where a chain is given by its changes, count along the chain named.
Experiments:
[1] = molecular target: T1, Androgen Receptor, LNCaP (AR T878A) (Homo sapiens, UniProt P10275, T878A); test: Androgen Receptor Degradation-Imaging Assay, LNCaP cell line; type: cell-based; details: 16 hours treatment, maximum observed degradation
T1 construct: endogenous in cells; host or cells: LNCaP
T1 sequence (P10275 1-920 T878A): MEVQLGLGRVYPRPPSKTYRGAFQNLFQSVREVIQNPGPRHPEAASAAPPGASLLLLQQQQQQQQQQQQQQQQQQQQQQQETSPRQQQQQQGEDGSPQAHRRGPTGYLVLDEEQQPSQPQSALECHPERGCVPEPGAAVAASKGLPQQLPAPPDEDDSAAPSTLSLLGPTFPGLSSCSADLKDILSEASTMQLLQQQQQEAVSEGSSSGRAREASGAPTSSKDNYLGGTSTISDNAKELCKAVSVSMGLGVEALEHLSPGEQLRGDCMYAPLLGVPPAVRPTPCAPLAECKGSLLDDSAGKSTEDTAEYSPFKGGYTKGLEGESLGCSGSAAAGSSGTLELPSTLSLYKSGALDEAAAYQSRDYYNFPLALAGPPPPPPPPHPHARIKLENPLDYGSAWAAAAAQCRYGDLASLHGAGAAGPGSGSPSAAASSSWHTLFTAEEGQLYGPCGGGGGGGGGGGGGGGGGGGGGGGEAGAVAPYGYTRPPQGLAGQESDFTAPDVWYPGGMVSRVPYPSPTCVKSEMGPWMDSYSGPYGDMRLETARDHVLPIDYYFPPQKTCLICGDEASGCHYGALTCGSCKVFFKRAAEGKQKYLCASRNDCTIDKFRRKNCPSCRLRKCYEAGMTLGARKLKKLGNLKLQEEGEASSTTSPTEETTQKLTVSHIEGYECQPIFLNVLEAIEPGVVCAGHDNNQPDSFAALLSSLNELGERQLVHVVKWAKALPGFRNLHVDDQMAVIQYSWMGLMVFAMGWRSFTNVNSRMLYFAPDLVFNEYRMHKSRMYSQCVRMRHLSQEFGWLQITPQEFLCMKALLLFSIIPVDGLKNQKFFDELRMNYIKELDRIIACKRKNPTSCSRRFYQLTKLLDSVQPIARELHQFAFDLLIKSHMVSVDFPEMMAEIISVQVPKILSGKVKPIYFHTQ
Experimental: (§1) Degradation of Androgen Receptor (AR) protein in human prostate cancer cell lines (MDA-PCa-2b (AR T878A/L702H), LNCaP (AR T878A), VCaP (AR wild type and amplified) 22RV1 (AR H875Y) and PC3 (AR negative control)) treated with AR PROTACs was quantified using immunofluorescence. Prostate cancer cells were plated (MDA-PCa-2b, and VCaP 16,000 cells/well; LNCaP and 22RV1 32,000 cells/well, and PC3 8,000 cells/well) in an optical bottom 96-well cell culture plate and allowed to attach overnight. The prostate cancer cell lines were treated for 16 hours with a 10-point 3-fold dilution series (dose range=0.02 nM to 333 nM). PC3 is included as an AR negative control and not treated with compound. Cells are fixed and permeabilized with 4% formaldehyde, blocked with 10% goat serum in immunofluorescence (IF) buffer (130 mM NaCl, 7 mM Na2HPO4, 3.5 mM NaH2PO4, 7.7 mM NaN3, 0.1% BSA, 0.2% Triton X, 0.05% Tween 20) prior to overnight incubation with rabbit antibody specific for C terminus of AR (commercially available from RevMaB Biosciences). Following washes with IF buffer, cells were incubated with fluorescent secondary antibody (Goat anti-rabbit Alexa 647; commercially available from Invitrogen) and Hoechst nuclear stain (commercially available from Themo Scientific) prior to quantification of nuclear AR levels via Opera Phenix high-content fluorescent imager using a 40× water objective. Image analysis was performed with Harmony software.
(§2) The averaged nuclear Alexa 647 median fluorescence intensity (MFI) of PC3 cells is subtracted from the nuclear Alexa 647 MFI of PROTAC treated and DMSO control treated cells. % AR remaining is calculated for PROTAC treatments as a percent of the DMSO control (MFI PROTAC treated/MFI DMSO control treated)*100). DC50 and the Dmax values, were obtained from these normalised values fitted with a 4-parameter sigmoidal response curve (Xlfit software). The DC50 is the interpolated concentration of PROTAC corresponding to 50% of the protein being degraded, and the Dmax parameter is the maximum experimentally observed degradation.

[2] = molecular target: T2, Androgen Receptor, VCaP (AR wild type and amplified) (Homo sapiens, UniProt P10275); test: Androgen Receptor Degradation-Imaging Assay, VCaP cell line; type: cell-based; details: 16 hours treatment, maximum observed degradation
T2 construct: endogenous in cells; host or cells: VCaP
T2 sequence (P10275 1-920): T1 sequence (P10275 1-920 T878A) with A878T
Experimental: as §1, §2

[3] = molecular target: T3, Androgen Receptor, MDA-PCa-2b (AR T878A/L702H) (Homo sapiens, UniProt P10275, L702H/T878A); test: Androgen Receptor Degradation-Imaging Assay, MDA-PCa-2b cell line; type: cell-based; details: 16 hours treatment, maximum observed degradation
T3 construct: host or cells: MDA-PCa-2b
T3 sequence (P10275 1-920 L702H/T878A): T1 sequence (P10275 1-920 T878A) with L702H
Experimental: as §1, §2

[4] = Systemic exposure following oral administration in the rat; details: for AUC0-t: 72 hours sampling; for AUC0-t / Cmax / Dose Normalised AUC0-t / Tmax: mean±SD (n=3); for *Estimated Bioavailability: dose normalised AUC0-t against an IV dose of 0.5 mg/kg
Experimental: Systemic exposure of various forms of N-((1r,3r)-3-(4-cyano-3-methoxyphenoxy)-2,2,4,4-tetramethylcyclobutyl)-4-(4-((4-(4-(2,4-dioxotetrahydropyrimidin-1(2H)-yl)-1H-pyrazolo[4,3-c]pyridin-1-yl)piperidin-1-yl)methyl)piperidin-1-yl)-3-fluorobenzamide were assessed following oral administration of 30 mg/kg of a suspension formulation (1% methylcellulose (aq)) or following oral administration of 35 mg/kg of a suspension formulation (100% PEG400) in the male Wistar Han rat. […] The sampling period was 72 hours, and the data is reported in the attached table as mean±SD (n=3).

[5] = 30 mg/kg in 1% methylcellulose (aq.), male Wistar Han rat, 30 mg/kg
[6] = 35 mg/kg in 100% PEG400, male Wistar Han rat, 35 mg/kg

| SMILES | Dmax [1] [%] | Dmax [2] [%] | Dmax [3] [%] | AUC0-t [4, 5] [µg·h/mL] | Cmax [4, 5] [µg/mL] | Dose Normalised AUC0-t [4, 5] | Tmax [4, 5] [h] | *Estimated Bioavailability ([4]; 30 mg/kg in 1% methylcellulose (aq.), rat) [%] | AUC0-t [4, 6] [µg·h/mL] | Cmax [4, 6] [µg/mL] | Dose Normalised AUC0-t [4, 6] | Tmax [4, 6] [h] | *Estimated Bioavailability ([4]; 35 mg/kg in 100% PEG400, rat) [%] |
| --- | --- | --- | --- | --- | --- | --- | --- | --- | --- | --- | --- | --- | --- |
| COc1cc(O[C@H]2C(C)(C)[C@H](NC(=O)c3ccc(N4CCC(CN5CCC(n6ccc7c(N8CCC(=O)NC8=O)nccc76)CC5)CC4)c(F)c3)C2(C)C)ccc1C#N [Example 17, N-((1r,3r)-3-(4-Cyano-3-methoxyphenoxy)-2,2,4,4-tetramethylcyclobutyl)-4-(4-((4-(4-(2,4-dioxotetrahydropyrimidin-1(2H)-yl)-1H-pyrrolo[3,2-c]pyridin-1-yl)piperidin-1-yl)methyl)piperidin-1-yl)-3-fluorobenzamide] | ≥ 80 | ≥ 80 | ≥ 80 |  |  |  |  |  |  |  |  |  |  |
| COc1cc(O[C@H]2C(C)(C)[C@H](NC(=O)c3ccc(N4CCC(CN5CCC(n6ncc7c(N8CCC(=O)NC8=O)nccc76)CC5)CC4)c(F)c3)C2(C)C)ccc1C#N [Crystalline API, N-((1r,3r)-3-(4-cyano-3-methoxyphenoxy)-2,2,4,4-tetramethylcyclobutyl)-4-(4-((4-(4-(2,4-dioxotetrahydropyrimidin-1(2H)-yl)-1H-pyrazolo[4,3-c]pyridin-1-yl)piperidin-1-yl)methyl)piperidin-1-yl)-3-fluorobenzamide] |  |  |  | 4.38 ± 1.45 | 0.185 ± 0.076 | 148 ± 49 (ng · h/mL)/(mg/kg | 7.3 ± 1.2 | 16 | 10.7 ± 3.37 | 0.42 ± 0.123 | 309 ± 98 (ng · h/mL)/(mg/kg | 9.3 ± 2.3 | 33 |
